In patent publication US9169254B2, “Spiroimidazolone derivative” (Chugai Seiyaku Kabushiki Kaisha, priority 2009, dated 2015):

Molecular target: T1, human PTH1 receptor (Homo sapiens, UniProt Q03431)
T1 sequence (Q03431 27-593): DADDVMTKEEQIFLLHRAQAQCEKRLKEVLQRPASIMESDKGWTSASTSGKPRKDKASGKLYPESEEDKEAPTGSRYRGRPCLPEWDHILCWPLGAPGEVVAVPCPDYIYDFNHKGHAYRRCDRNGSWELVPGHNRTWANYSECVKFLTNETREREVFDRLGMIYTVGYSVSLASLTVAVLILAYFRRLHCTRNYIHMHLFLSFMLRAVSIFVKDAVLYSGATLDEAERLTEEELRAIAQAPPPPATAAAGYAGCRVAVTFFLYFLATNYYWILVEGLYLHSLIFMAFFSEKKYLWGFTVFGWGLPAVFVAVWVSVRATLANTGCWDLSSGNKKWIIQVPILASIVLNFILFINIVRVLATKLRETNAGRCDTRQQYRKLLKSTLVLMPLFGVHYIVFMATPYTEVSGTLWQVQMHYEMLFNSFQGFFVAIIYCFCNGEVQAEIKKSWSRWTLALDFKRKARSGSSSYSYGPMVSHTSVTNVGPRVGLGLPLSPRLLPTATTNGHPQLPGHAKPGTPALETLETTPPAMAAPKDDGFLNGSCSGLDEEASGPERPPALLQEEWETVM
Experiment: In vitro cAMP signal activity in HKRK-B7 cells (LLC-PK1 cells overexpressing the human PTH1 receptor)
Type: cell-based
Details: HKRK-B7 cells; compound at 1×10^−3 M; cAMP produced as percentage of that produced by hPTH(1-34) at 100 nM

Row | cAMP production activity (%) | Compound
1 | 82 | Cc1cc(NC[C@H](O)CO)ccc1CCS(=O)(=O)N1CCC2(CC1)N=C(c1ccc(C(F)(F)F)cc1)NC2=O [Compound 154, 8-{2-[4-((S)-2,3-Dihydroxy-propylamino)-2-methyl-phenyl]-ethanesulfonyl}-2-(4-trifluoromethyl-phenyl)-1,3,8-triaza-spiro[4.5]dec-1-en-4-one]
2 | 45 | Cc1cc(NC[C@H](O)CO)ccc1CCS(=O)(=O)N1CCC2(CC1)N=C(c1cccc(C(F)(F)F)c1)NC2=O [Compound 155, 8-{2-[4-((S)-2,3-dihydroxy-propylamino)-2-methyl-phenyl]-ethanesulfonyl}-2-(3-trifluoromethyl-phenyl)-1,3,8-triaza-spiro[4.5]dec-1-en-4-one]
3 | 64 | Cc1cc(NC[C@H](O)CO)ccc1CCS(=O)(=O)N1CCC2(CC1)N=C(c1ccc(OC(F)(F)F)cc1)NC2=O [Compound 156, 8-{2-[4-((S)-2,3-Dihydroxy-propylamino)-2-methyl-phenyl]-ethanesulfonyl}-2-(4-trifluoromethoxy-phenyl)-1,3,8-triaza-spiro[4.5]dec-1-en-4-one]

More lines, now with the values behind:

Row | Compound | cAMP production activity (%)
4 | CC(=O)N(CCO)c1ccc(CCS(=O)(=O)N2CCC3(CC2)N=C(c2cccc(OC(F)(F)F)c2)NC3=O)c(C)c1 [Compound 149, N-(2-Hydroxy-ethyl)-N-(3-methyl-4-{2-[4-oxo-2-(3-trifluoromethoxy-phenyl)-1,3,8-triaza-spiro[4.5]dec-1-ene-8-sulfonyl]-ethyl}-phenyl)-acetamide] | 56
5 | CC(=O)OC[C@H](CN(C(C)=O)c1ccc(CCS(=O)(=O)N2CCC3(CC2)N=C(c2cccc(C(F)(F)F)c2)NC3=O)c(C)c1)OC(C)=O [Compound 150, Acetic acid (S)-1-acetoxymethyl-2-[acetyl-(3-methyl-4-{2-[4-oxo-2-(3-trifluoromethyl-phenyl)-1,3,8-triaza-spiro[4.5]dec-1-ene-8-sulfonyl]-ethyl}-phenyl)-amino]-ethyl ester] | 62
6 | CC(=O)OC[C@H](CN(C(C)=O)c1ccc(CCS(=O)(=O)N2CCC3(CC2)N=C(c2ccc(C(F)(F)F)cc2)NC3=O)c(C)c1)OC(C)=O [Compound 151, acetic acid (S)-1-acetoxymethyl-2-[acetyl-(3-methyl-4-{2-[4-oxo-2-(4-trifluoromethyl-phenyl)-1,3,8-triaza-spiro[4.5]dec-1-ene-8-sulfonyl]-ethyl}-phenyl)-amino]-ethyl ester] | 53
7 | CC(=O)OC[C@H](CN(C(C)=O)c1ccc(CCS(=O)(=O)N2CCC3(CC2)N=C(c2ccc(OC(F)(F)F)cc2)NC3=O)c(C)c1)OC(C)=O [Compound 152, acetic acid (S)-1-acetoxymethyl-2-[acetyl-(3-methyl-4-{2-[4-oxo-2-(4-trifluoromethoxy-phenyl)-1,3,8-triaza-spiro[4.5]dec-1-ene-8-sulfonyl]-ethyl}-phenyl)-amino]-ethyl ester] | 47
8 | CC(=O)OC[C@H](CN(C(C)=O)c1ccc(CCS(=O)(=O)N2CCC3(CC2)N=C(c2ccc(F)c(C(F)(F)F)c2)NC3=O)c(C)c1)OC(C)=O [Compound 153, acetic acid (S)-1-acetoxymethyl-2-[acetyl-(4-{2-[2-(4-fluoro-3-trifluoromethyl-phenyl)-4-oxo-1,3,8-triaza-spiro[4.5]dec-1-ene-8-sulfonyl]-ethyl}-3-methyl-phenyl)-amino]-ethyl ester] | 59
9 | Cc1cc(NC[C@H](O)CO)ccc1CCS(=O)(=O)N1CCC2(CC1)N=C(c1cccc(Cl)c1)NC2=O [Compound 157, 2-(3-chloro-phenyl)-8-{2-[4-((S)-2,3-dihydroxy-propylamino)-2-methyl-phenyl]-ethanesulfonyl}-1,3,8-triaza-spiro[4.5]dec-1-en-4-one] | 70
10 | Cc1cc(NC[C@H](O)CO)ccc1CCS(=O)(=O)N1CCC2(CC1)N=C(c1ccc(Cl)cc1)NC2=O [Compound 158, 2-(4-chloro-phenyl)-8-{2-[4-((S)-2,3-dihydroxy-propylamino)-2-methyl-phenyl]-ethanesulfonyl}-1,3,8-triaza-spiro[4.5]dec-1-en-4-one] | 62
